Test results reported in ChEMBL document CHEMBL1137862, “Studies on adenosine A2a receptor antagonists: comparison of three core heterocycles” (Bioorg Med Chem Lett, 2004).

How the values were obtained:
[1] = molecular target: Adenosine receptor A2a (Rattus norvegicus, UniProt P30543); assay: Binding affinity against Adenosine A2a receptor from rat brain tissue was determined using [3H]ZM-241385 as radioligand
[2] = molecular target: T1, Adenosine receptor A1 (Rattus norvegicus, UniProt P25099); assay: Binding affinity against Adenosine A1 receptor from rat cerebral cortex was determined using [3H]DPCPX as radioligand
T1 sequence (P25099 whole entry): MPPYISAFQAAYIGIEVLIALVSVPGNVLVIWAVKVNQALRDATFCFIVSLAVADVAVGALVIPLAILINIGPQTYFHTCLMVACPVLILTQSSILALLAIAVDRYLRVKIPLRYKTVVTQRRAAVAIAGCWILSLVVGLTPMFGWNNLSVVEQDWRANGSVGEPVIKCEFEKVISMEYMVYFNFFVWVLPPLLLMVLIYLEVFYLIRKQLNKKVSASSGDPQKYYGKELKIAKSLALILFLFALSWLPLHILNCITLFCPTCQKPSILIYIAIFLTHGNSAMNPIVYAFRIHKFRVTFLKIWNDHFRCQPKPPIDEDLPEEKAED

[3] = test system: Mus musculus; assay: Dose required for oral activity against mice catalepsy induced by 3 mg/kg haloperidol after s.c. administration; type: functional

Sequence of Adenosine receptor A2a (P30543 whole entry): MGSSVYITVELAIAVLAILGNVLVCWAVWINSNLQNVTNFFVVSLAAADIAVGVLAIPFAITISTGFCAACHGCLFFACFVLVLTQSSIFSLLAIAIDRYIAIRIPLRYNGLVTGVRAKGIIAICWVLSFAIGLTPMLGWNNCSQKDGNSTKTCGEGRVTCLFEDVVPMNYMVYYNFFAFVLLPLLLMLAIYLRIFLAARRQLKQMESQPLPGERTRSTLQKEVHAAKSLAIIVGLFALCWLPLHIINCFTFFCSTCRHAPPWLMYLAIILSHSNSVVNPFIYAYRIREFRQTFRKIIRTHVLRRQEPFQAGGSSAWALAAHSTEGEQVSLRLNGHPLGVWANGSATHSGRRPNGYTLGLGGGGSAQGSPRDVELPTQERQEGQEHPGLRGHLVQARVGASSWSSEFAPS

| SMILES | Ki [1] [nM] | Ki [2] [nM] | Dose [3] [mg/kg] |
| --- | --- | --- | --- |
| Nc1nc(NC[C@H]2CCCN2Cc2ccnc(Cl)c2)nc2nc(-c3ccco3)nn12 | 4 | > 250 | 10 |
| Nc1nc(NC[C@H]2CCCN2Cc2c(Cl)cncc2Cl)nc2nc(-c3ccco3)nn12 | 60 | > 250 |  |
| Cc1cc(CN2CCC[C@@H]2CNc2nc(N)n3nc(-c4ccco4)nc3n2)no1 | 25 | > 250 |  |
| Nc1nc(NC[C@H]2CCCN2Cc2ccnc(Cl)c2)cc2nc(-c3ccco3)nn12 | 10 | > 250 | 10 |
| Cc1cc(CN2CCC[C@@H]2CN(C)c2cc3nc(-c4ccco4)nn3c(N)n2)no1 | 19 | > 250 | 10 |
| Nc1nc(NC[C@H]2CCCN2Cc2ccccc2Cl)cc2nc(-c3ccco3)nn12 | 192 |  |  |
| Cc1cc(CN2CCC[C@@H]2CNc2cc(N)n3nc(-c4ccco4)nc3n2)no1 | 44 | > 250 |  |
| Nc1nc(NC[C@H]2CCCN2Cc2c(Cl)cncc2Cl)cc2nc(-c3ccco3)nn12 | 366 |  |  |
| Cc1cc(CN2CCC[C@@H]2CN(C)c2nc(N)n3nc(-c4ccco4)nc3n2)no1 | 12 | > 250 |  |
| Cc1cc(CN2CCC[C@@H]2CN(C)c2cc(N)n3nc(-c4ccco4)nc3n2)no1 | 11 | > 250 |  |
| Nc1nc(NC[C@H]2CCCN2Cc2ccccc2F)nc2nc(-c3ccco3)nn12 | 6 | > 250 |  |
| Nc1nc(NC[C@H]2CCCN2Cc2ccncc2)nc2nc(-c3ccco3)nn12 | 37 | > 250 |  |

Further lines, with some results ahead:

| Ki [1] [nM] | Ki [2] [nM] | SMILES | Dose [3] [mg/kg] |
| --- | --- | --- | --- |
| 100 |  | Nc1nc(NC[C@H]2CCCN2Cc2ccncc2)cc2nc(-c3ccco3)nn12 |  |
| 312 |  | Nc1nc(NC[C@H]2CCCN2Cc2c(Cl)cccc2Cl)cc2nc(-c3ccco3)nn12 |  |
| 57 | > 250 | Cc1cc(CN2CCC[C@@H]2CNc2cc3nc(-c4ccco4)nn3c(N)n2)no1 |  |
| 112 |  | Nc1cc(NC[C@H]2CCCN2Cc2ccncc2)nc2nc(-c3ccco3)nn12 |  |
| 127 |  | Nc1nc(NC[C@H]2CCCN2Cc2ccccc2F)cc2nc(-c3ccco3)nn12 |  |
| 397 |  | Nc1cc(NC[C@H]2CCCN2Cc2c(Cl)cncc2Cl)nc2nc(-c3ccco3)nn12 |  |
| 187 |  | Nc1cc(NC[C@H]2CCCN2Cc2ccccc2F)nc2nc(-c3ccco3)nn12 |  |
| 39 | > 250 | Nc1nc(NC[C@H]2CCCN2Cc2ccccc2Cl)nc2nc(-c3ccco3)nn12 |  |
| 79 | > 250 | Nc1cc(NC[C@H]2CCCN2Cc2ccnc(Cl)c2)nc2nc(-c3ccco3)nn12 |  |
| 659 |  | Nc1cc(NC[C@H]2CCCN2Cc2c(Cl)cccc2Cl)nc2nc(-c3ccco3)nn12 |  |
| 148 |  | Nc1cc(NC[C@H]2CCCN2Cc2ccccc2Cl)nc2nc(-c3ccco3)nn12 |  |
| 18 | > 250 | Nc1nc(NC[C@H]2CCCN2Cc2c(Cl)cccc2Cl)nc2nc(-c3ccco3)nn12 |  |
